We go through 90 molecules from a melting point compilation (Tetko et al.; mined from patent text by program, amines drawn as free bases though some values may be those of a salt).

What is called melting point is the temperature, or range, at which the solid turns liquid. As to `O=C(Nc1ccc(-n2nc(C(F)(F)F)cc2C(F)(F)F)cc1)c1ccoc1`, the melting point was in the range of 206 to 207 °C. In the case of `CN1C(=O)CC[C@]2(C)c3ccc(-c4nc5ccccc5s4)cc3CC[C@@H]12`, the melting point was 207 to 212 °C. In the case of `O=C1NCCN1CCN1CCC(c2noc3cc(F)ccc23)CC1` it was 137 to 141 °C; in that of `CC(C)(C)OC(=O)N1C2CCC1CN(CC(O)COc1ccc(C#N)cc1)C2` (stereo not given), 98 to 104 °C. With `CCc1nn(CCNS(=O)(=O)c2cn(C)cn2)c(CC)c1Cc1cc(Cl)cc(Cl)c1` the figure was 172 to 174 °C; with `CCCc1c(OCc2ccc(C=CC(=O)O)c(OC)c2)ccc(C(C)=O)c1O`, 214 to 216 °C; with `O=C(O)CCCOc1ccc(C2C3CC4CC(C3)CC2C4)cc1` (stereo not given), 163 to 165 °C. Molecule `O=C(CCc1cccnc1)NCCCCC1CCN(C(=O)Nc2cccc3ccccc23)CC1` registered a melting point of 143 to 144 °C. The molecule `Cc1c(C)c(N)c2c(c1C)C(=O)C(C)(C)O2` came in with a melting point of 141 to 142 °C. For `COCCN1CCN(S(=O)(=O)c2ccc(-c3cnc4[nH]c(CCc5cc(OC)ccn5)nc4c3)cc2)CC1`, the melting point lay within 206 to 208 °C. In the case of `CCOC(=O)C(Cc1cc(Cl)c(Sc2ccc(OC)c(Cc3ccc(OC)nc3)c2)c(Cl)c1)(NC(C)=O)C(=O)OCC` it was 170 to 171 °C; in that of `Cc1cc2c(cn1)c(C#N)c(-c1ncc(S(=O)(=O)NC(C)C)cn1)n2C1CCC1`, 242 to 243 °C; in that of `CS(=O)c1cc(C(C)(C)C)c(O)c(C(C)(C)C)c1` (stereo not given), 171 to 173 °C. `Nc1c(F)c(Oc2ccc(Cl)c(Cl)c2)nc(C(=O)O)c1Cl` yielded a melting point of 156 to 160 °C. `COc1ccc(S(=O)(=O)C(C/C=C(\C)CCC=C(C)C)(Cc2ccc(OCCN3CCOCC3)cc2)C(=O)NO)cc1` (stereo not given): the melting point worked out at 61 °C. With `O=C(N1CCC2(C=Cc3ccccc32)CC1)N1CCCc2ccccc21` the figure was 130 to 133 °C; with `CCOC(=O)c1cc(-c2ccccc2)n(-c2cccc(C(C)=O)c2)c1C`, 102 to 104 °C. In turn, `CC(C)(Cc1ccccc1)C(NC(=O)c1cc(Cl)cc(Cl)c1)Nc1c(Nc2cccnc2)c(=O)c1=O` (stereo not given) gave a melting point of 197 to 198 °C. The molecule `CC(C)(C)C#CC(O)C#CC(C)(C)C` registered a melting point of 67 to 70 °C. `Nc1c([N+](=O)[O-])cc(F)c(Cl)c1F` came in with a melting point of 96 to 97 °C. Molecule `Cc1cc(C)nc(N(C(=O)n2cncn2)c2ccccc2)n1` showed a melting point of 157 °C.

On to `COc1cc(OC)nc(C2(OC(C)=O)OC(=O)c3c(Cl)cccc32)n1` (stereo not given), for which the melting point is 213 to 215 °C.

As to `CCCCNc1nn(C(=O)OC)c2c1c(=O)n(CCC)c1ccccc21`, the melting point fell in the range of 147 to 149 °C. Take `COC(=O)c1cc2c([N+](=O)[O-])csc2nc1C1=NC(C)(C(C)C)C(=O)N1` (stereo not given): the melting point fell in the range of 201 to 202 °C. In the case of `CC(=O)SCC(C(=O)NCCc1ccncc1)C(F)(F)F` (stereo not given) it was 87 to 89 °C; in that of `O=C(N[C@@H](Cc1ccc2ccccc2c1)C(=O)O)OCc1ccccc1`, 109 to 111 °C; in that of `CC(=O)Nc1ccc(-c2cc(C(=O)c3ccc(Cl)cc3)sc2N2CCOCC2)cc1`, 120 °C. In turn, `Cc1c(-c2ccncc2)[nH]c(-c2ccncc2)c1C(N)=O` displayed a melting point of 212 to 215 °C. Molecule `N#Cc1ccc(C(=O)N=C=S)cc1` came in with a melting point of 87.5 to 88.5 °C. Molecule `CC(=O)OCc1cncc(COc2cc3c(=O)c(Cc4cccnc4)cn4c5ccc(Br)cc5c(c2)c34)c1` gave a melting point of 83.5 to 84.5 °C. The molecule `CN(C)n1c(Cl)n[nH]c1=O` yielded a melting point of 158 °C. In the case of `CNC(=O)Oc1ccc2onc(NCCN3CCOCC3)c2c1`, the melting point lay in the range of 135 to 136 °C. `Cc1cc(C)c(S(=O)(=O)OCCC2CCN(S(=O)(=O)c3c(C)cc(C)cc3C)CC2)c(C)c1` had a melting point of 93.5 to 94 °C. With `O=c1cc(NCCN2CCC(c3noc4cc(F)ccc34)CC2)cn[nH]1`, the melting point is 97 to 99 °C. As to `CCNc1cc(Oc2ccc(N)cc2)ncn1`, the melting point fell in the range of 143 to 145 °C. In turn, `CCCCCCCCNC(=O)N1CCC(Oc2ccc(CCNC[C@H](O)COc3ccc(O)cc3)cc2)CC1` had a melting point of 79 to 81 °C. In the case of `COC(=O)c1cc(C(=O)O)nn1C`, the melting point turned out to be 175 °C.

Turning to `CC(C)(C)OC(=O)/C(=C/c1ccccc1)C(=O)c1ccccc1O`, the melting point was 109 to 110 °C. As to `COC(=O)NC1Cc2ccc([N+](=O)[O-])cc2C1OC(C)=O` (stereo not given), the melting point lay in the range of 164 to 167 °C. In the case of `CC(C)(C(=O)O)c1cc(C(=O)c2ccccc2)ccc1O` it was 207 °C; in that of `COC(=O)C(Oc1cc(OCc2ccc3ncoc3c2)ccc1C#N)c1ccccc1C` (racemic), 157 to 159 °C. In the case of `CCOCc1nc2c(N)nc3cc(Br)cnc3c2n1CC(C)(C)F` it was 221 to 222 °C.

`CCCn1c(=O)cc(-n2nc(-c3c(-c4ccccc4)nn4ccccc34)ccc2=O)n(CC(=O)OC)c1=O` had a melting point of 143 to 145 °C.

The molecule `CC(C)Cn1c(CNC(=O)OC(C)(C)C)c(-c2ccccc2)c2cc(C(N)=S)ccc2c1=O` returned a melting point of 228 to 229 °C. On to `CCOC(=O)C1(C(=O)NCc2ccccc2)CC(=O)N(Cc2ccccc2)C1` (stereo not given), for which the melting point was in the range of 63 to 65 °C. Molecule `Fc1cccc(F)c1Cn1nnc2c(Cl)nccc21` gave a melting point of 133 to 139 °C. In turn, `CC1=C(c2ccccc2)C(=O)N(C(C)(C)C(O)c2cc(F)cc(F)c2)CO1` (stereo not given) had a melting point of 87.6 to 89 °C. For the molecule `CN(C)c1ccc(S(=O)CCCCCC(=O)NO)cc1` (stereo not given), the melting point was in the range of 95 to 97 °C. In turn, `CCCCC(OC(=O)c1ccccc1)P(=O)(O)OC(CCCCN)C(=O)N1CCCC1C(=O)O` (stereo not given) yielded a melting point of 158 to 170 °C. In the case of `CC(C)(C)OCCCNC(=O)c1nn(C2CCCCO2)cc1NC(=O)c1ccccn1` (stereo not given) it was 101 to 103 °C. In the case of `O=c1c(-c2ccccc2)cc(Cl)c2n1CCSc1ccsc1-2`, the melting point was 179 °C. Take `Nc1cccc2c1CN(c1c(F)cc3c(=O)c(C(=O)O)cn(-c4ccc(F)cc4)c3c1F)C2`: the melting point fell in the range of 269 to 274 °C. Turning to `Cc1cn2c(nc1=O)CCCCC2`, the melting point was found to be 202 °C. `c1ccc(Nc2nc(NC3CCC3)c3[nH]cnc3n2)cc1` yielded a melting point of 312 to 314 °C. With `NC(=S)Nc1cnccn1` the figure was 234 to 235 °C; with `CC(=O)C1CNCc2c1[nH]c1cnc3cc(Cl)ccc3c21` (stereo not given), 235 to 237 °C. `CC=CN(C=CC)c1ccc2[nH]c3cnc(C(=O)OCC)cc3c2c1` registered a melting point of 235 to 238 °C. With `CC(=O)OC1CSC(Oc2ccc(-c3ccnc(Cl)c3)nc2)C(OC(C)=O)C1OC(C)=O` (stereo not given) the figure was 226 °C; with `O=C(O)c1ccc(-c2nnn[nH]2)nc1`, 257 to 259 °C; with `Nc1cn(C2CCN(c3c(F)cc4c(=O)c(C(=O)O)cn(C5CC5)c4c3F)C2)nn1` (stereo not given), 221 °C. With `CCOC1=Nc2ccc(Cl)cc2C(c2ccccc2Cl)=NC1OC` (stereo not given) the figure was 110 to 113 °C.

For `CN1CC(N(C(=O)c2ccc(Cl)cc2)c2ccccc2)CN1C`, the melting point lay in the range of 104 to 108 °C.

Molecule `O=CC1=CC(c2ccccc2)(c2ccccc2)CCC1=O` returned a melting point of 126 °C. With `Cc1ccc(C(=O)c2cccc(S)n2)cc1` the figure was 179 to 181 °C; with `CCCS(=O)(=O)NCC1Cc2ccc(C3=NNC(=O)CC3)cc2C1` (stereo not given), 158 to 159 °C; with `COC1(c2cc(F)cc(Sc3ccc(CONC(N)=O)cc3)c2)CCOCC1`, 104 to 105 °C. Molecule `O=S(=O)(c1ccccc1)c1ccc2cc[nH]c2c1` showed a melting point of 141 to 144 °C. As for `CC(C)(C)c1cc2ncnn2nc1OCCN1CCC(OC(c2ccccc2)c2ccccc2)CC1`, the melting point lay in the range of 133 to 135 °C. For `CC(=Cc1ccccc1)n1c(=O)[nH]c2ccc(F)cc21`, the melting point was determined as 190 °C. The molecule `O=Cc1ccc(CNc2ccccn2)c(Cl)c1` gave a melting point of 122 to 123 °C. `CCOc1c(C)cc([N+](=O)[O-])cc1C` displayed a melting point of 56 °C. In the case of `O=c1nc(-c2ccc3c(c2)OCCO3)c2ccc3c(c2[nH]1)OCO3`, the melting point is above 300 °C. In the case of `O=C(NCCCn1cncn1)c1ccc([N+](=O)[O-])o1` it was 176 to 177 °C.

In turn, `CNC(=O)N1C(=S)C2(CCCCC2)NC12CCCCC2` registered a melting point of 127 to 129 °C. Molecule `COc1ccc(-c2nc(CNC(=O)CCC(=O)O)sc2-c2ccc(OC)cc2)cc1` had a melting point of 110 to 116 °C. `Nc1ncnc2c1ncn2OCC(O)COCP(=O)(O)O` (stereo not given): the melting point is 218 to 221 °C. In the case of `FC(F)(F)c1ccc(Cn2cnc3c(-c4ccco4)ncnc32)cc1` it was 159 to 161 °C; in that of `CN1CCN(c2nc(-c3ccccc3)c3ccccc3n2)CC1`, 101 to 122 °C.

`CCCNC(=O)CCCc1ccc2c(c1)c(Cc1ccc(C(=O)NS(=O)(=O)c3ccccc3C)cc1OC)cn2CCC` had a melting point of 94 to 95 °C. Take `O=C(Oc1ccccc1)c1ccc(NS(=O)(=O)c2ccccc2)cc1Cl`: the melting point was in the range of 130 to 140 °C. `COC(=O)[C@@H]1C[C@@H](OS(C)(=O)=O)CN1C(=O)C1(C(F)(F)F)CC1`: the melting point lay within 123 to 124 °C. In turn, `CCc1cc(Cl)c(NN)c(Cl)c1` returned a melting point of 48 to 50 °C.

The molecule `CCOC(=O)C1=C(N)OC(C)=C(C(C)=O)C1c1cccc([N+](=O)[O-])c1` (stereo not given) displayed a melting point of 181 °C. For `O=C(O)c1csc2c(=O)cc(C(F)(F)F)oc12`, the melting point is 249 to 251 °C. With `CCCCC(=N)NC(=O)Nc1ccc([N+](=O)[O-])cc1` the figure was 187 to 191 °C; with `CC(C)n1nc(-c2sc(NC(=O)CCN3CCOCC3)nc2-c2ccccc2)ccc1=O`, 197 to 198 °C; with `CN1CCN(CCCNc2ncc3c(n2)-c2ccccc2C(c2ccc(N)cc2)C3)CC1` (stereo not given), 75 to 77 °C. `COc1ccc(C2CN(O)C3(c4ccccc4)CCCCC23)cc1OC` (stereo not given) yielded a melting point of 166 to 168 °C. With `CCCc1c(O)ccc2c(=O)cc(C(=O)OCC)oc12`, the melting point lay within 155 to 162 °C. For `Nc1cc(N)cc(O)c1`, the melting point fell in the range of 168 to 170 °C.
